Measurements taken from paper PMC4148173 (Journal of Medicinal Chemistry, 2014).

Experiments:
human D2L receptors = human D2L receptors (Homo sapiens, UniProt P14416); assay: β-Arrestin-2 recruitment assay; format: cell-based; conditions: standard agonist
human D3R [1] = target: T1, human D3R (Homo sapiens, UniProt P35462); assay: β-Arrestin-2 recruitment assay; format: cell-based; conditions: for D3R IC50 ± SEM: inhibition of (+)-PD128907-induced arrestin translocation in U2OS cells expressing D3R; for selectivity ratio (D2R IC50)/(D3R IC50): β-arrestin-2 recruitment antagonist selectivity
human D3R [2] = target: T1, human D3R; assay: [35S]GTPγS binding assay, CHO-hD3 membranes; format: biochemical; conditions: for stimulation of [35S]GTPγS binding, D3R: agonist test; for inhibition at 10 µM: read-out: inhibition of D3R basal [35S]GTPγS binding; for inhibition of basal [35S]GTPγS binding at D3R: up to 1 μM concentration
human D2R = human D2R (Homo sapiens, UniProt P14416); assay: [35S]GTPγS binding assay, CHO-hD2 membranes; format: biochemical; conditions: for stimulation of [35S]GTPγS binding, D2R: agonist test; for inhibition of basal [35S]GTPγS binding at D2R: up to 1 μM concentration
human D3R [3] = target: T1, human D3R; assay: [125I]IABN displacement binding, HEK cell membranes expressing human D3R
human D2LR = human D2LR (Homo sapiens, UniProt P14416); assay: [125I]IABN displacement binding, HEK cell membranes expressing human D2LR
rats = conditions: cited from earlier work

T1 sequence (P35462 whole entry): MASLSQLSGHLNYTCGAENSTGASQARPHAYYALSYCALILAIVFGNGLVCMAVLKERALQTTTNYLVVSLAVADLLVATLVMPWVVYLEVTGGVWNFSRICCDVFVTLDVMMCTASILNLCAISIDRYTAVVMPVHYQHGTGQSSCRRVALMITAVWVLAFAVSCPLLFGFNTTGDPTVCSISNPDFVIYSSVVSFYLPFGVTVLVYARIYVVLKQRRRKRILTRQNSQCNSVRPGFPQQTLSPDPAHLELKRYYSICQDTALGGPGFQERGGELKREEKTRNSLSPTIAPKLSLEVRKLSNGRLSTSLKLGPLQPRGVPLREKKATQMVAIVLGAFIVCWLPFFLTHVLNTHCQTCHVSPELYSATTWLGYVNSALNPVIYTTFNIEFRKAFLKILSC
Chain of human D2R (P14416 whole entry): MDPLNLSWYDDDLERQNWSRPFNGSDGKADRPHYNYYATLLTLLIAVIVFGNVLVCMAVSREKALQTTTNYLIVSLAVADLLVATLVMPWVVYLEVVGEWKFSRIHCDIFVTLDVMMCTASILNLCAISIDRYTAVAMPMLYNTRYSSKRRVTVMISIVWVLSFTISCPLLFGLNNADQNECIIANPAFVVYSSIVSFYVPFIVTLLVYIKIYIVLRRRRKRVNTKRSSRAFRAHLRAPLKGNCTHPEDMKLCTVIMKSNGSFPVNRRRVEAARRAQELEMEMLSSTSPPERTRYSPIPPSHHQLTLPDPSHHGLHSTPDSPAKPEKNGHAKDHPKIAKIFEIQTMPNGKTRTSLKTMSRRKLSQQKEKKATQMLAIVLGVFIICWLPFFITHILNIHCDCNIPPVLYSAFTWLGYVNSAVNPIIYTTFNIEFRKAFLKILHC
Chain of human D2LR (P14416 whole entry): as above
Chain of human D2L receptors (P14416 whole entry): as above

Structure (SMILES)	D3R IC50 ± SEM (human D3R [1])	Kb (human D3R [2]) [nM]	stimulation of [35S]GTPγS binding, D3R (human D3R [2])	inhibition at 10 µM (human D3R [2]) [%]	inhibition of basal [35S]GTPγS binding at D3R (human D3R [2])	Kb (human D2R) [nM]	stimulation of [35S]GTPγS binding, D2R (human D2R)	inhibition of basal [35S]GTPγS binding at D2R (human D2R)	other results
CCCN1C[C@H](CSC)C[C@@H]2c3cccc4[nH]cc(c34)C[C@H]21 [pergolide]	–	–	–	–	–	–	–	–	agonist EC80 dose, D2R (human D2L receptors): 6 nM
CCCN1CCO[C@@H]2c3cc(O)ccc3OC[C@H]21 [PD128907, reference compound]	–	–	–	–	–	–	–	–	agonist EC80 dose, D3R (human D3R [1]; β-arrestin recruitment, standard agonist): 8 nM
CC(C)(C)c1nc(N2CCN(CCCCNC(=O)c3cn4ccncc4n3)CC2)cc(C(F)(F)F)n1 [Compound 30, N-(4-(4-(2-(tert-Butyl)-6-(trifluoromethyl)pyrimidin-4-yl)piperazin-1-yl)butyl)imidazo[1,2-a]pyrazine-2-carboxamide]	–	0.33 ± 0.05	did not stimulate	40 to 60	less than 30%	25 ± 6	did not stimulate	less than 30%	–
O=C(NCCCCN1CCN(c2cccc(Cl)c2Cl)CC1)c1cn2ccccc2n1 [Compound 8, N-(4-(4-(2,3-Dichlorophenyl)piperazin-1-yl)butyl)imidazo[1,2-a]pyridine-2-carboxamide]	subnanomolar	0.0038 ± 0.0013	did not stimulate	–	less than 30%	1.1 ± 0.2	did not stimulate	less than 30%	selectivity ratio (D2R IC50)/(D3R IC50) (human D3R [1]): > 400
CC(C)(C)c1nc(N2CCN(CCCCNC(=O)c3cc4ccccc4[nH]3)CC2)cc(C(F)(F)F)n1 [Compound 26, N-(4-(4-(2-(tert-Butyl)-6-(trifluoromethyl)pyrimidin-4-yl)piperazin-1-yl)butyl)-1H-indole-2-carboxamide]	–	–	–	–	–	–	–	–	lower binding potency at D3R (human D3R [3]; compared to compound 25): 2.6 fold; lower binding potency at D2R (human D2LR; compared to compound 25): 1.8 fold
CC(C)(C)c1nc(N2CCN(CCCCNC(=O)[C@H]3CC[C@H](c4ccccc4)CC3)CC2)cc(C(F)(F)F)n1 [Compound 39, trans-N-(4-(4-(2-(tert-Butyl)-6-(trifluoromethyl)pyrimidin-4-yl)piperazin-1-yl)butyl)-4-phenylcyclohexanecarboxamide]	–	–	did not stimulate	40 to 60	less than 30%	–	did not stimulate	less than 30%	–
CC(C)(C)c1nc(N2CCN(CCCCNC(=O)c3cn4ccccc4n3)CC2)cc(C(F)(F)F)n1 [Compound 25, N-(4-(4-(2-(tert-Butyl)-6-(trifluoromethyl)pyrimidin-4-yl)piperazin-1-yl)butyl)imidazo[1,2-a]pyridine-2-carboxamide]	subnanomolar	1.3 ± 0.4	did not stimulate	40 to 60	less than 30%	111 ± 25	did not stimulate	less than 30%	selectivity ratio (D2R Ki/D3R Ki) (human D3R [3]; Table 1, binding selectivity): > 100; selectivity ratio (D2R IC50)/(D3R IC50) (human D3R [1]): > 400; cocaine self-administration, cocaine reward, cue-induced reinstatement of cocaine-seeking, cocaine-induced place preference (rats; rat models): significantly attenuating; effect on food reward or spontaneous locomotor activity (rats; rats, at doses decreasing cocaine effects): no effect; cocaine reward, cocaine seeking, preference for cocaine-associated environments, and cocaine induced locomotor activity (rats; rats): significant decreases
COc1ccccc1N1CCN(CCCCNC(=O)c2cn3ccccc3n2)CC1 [Compound 7, N-(4-(4-(2-Methoxyphenyl)piperazin-1-yl)butyl)imidazo[1,2-a]pyridine-2-carboxamide]	subnanomolar	–	–	–	–	–	–	–	enhancement in affinity at the D3R (human D3R [3]; compared to compound 6): ~3 fold; higher affinity at D2R (human D2LR; compared to compound 6): ~10 fold
